{"source": "PubChem BioAssay AID1845209", "about": "(Molecular Pharmacology Branch, DTP, NCI, 2023)", "system": "NCI-H211 tumor spheroids, viability percent test/control", "experiment": "Anticancer human tumor NCI-H211 cell line growth inhibition;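 as to all read-outs here: spheroids exposed to agents for seven days before readout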", "conditions": "spheroids with HUVEC and MSC; for viability, T/C: stronger effect = lower value", "how_it_was_run": "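Complex spheroids of malignant cells with endothelial cells and mesenchymal stem cells; agents alone or combined, from near clinical Cmax (or 10 microM if unknown) down in half-log steps, 0.25% DMSO final.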", "note": "Values joined by “and” are separate entries in the source; they are usually repeats but may differ in a detail not shown here. Identical values can stand only once."}
{"smiles": "Cc1cc(C)c(CNC(=O)c2cc(-c3ccc(CN4CCOCC4)cc3)cc3c2cnn3C2CCCC2)c(=O)[nH]1", "note": "+ CC[C@@]1(O)C(=O)OCc2c1cc1n(c2=O)Cc2cc3c(CN(C)C)c(O)ccc3nc2-1", "values": [{"measurement": "IC50", "setting": "curve of first compound, second compound 0.003 µM", "value": 1890, "unit": "nM"}, {"measurement": "IC50", "setting": "curve of first compound, second compound 0.00949 µM", "value": "< 31.6", "unit": "nM"}, {"measurement": "IC50", "setting": "curve of first compound, second compound 0.03 µM", "value": "< 31.6", "unit": "nM"}, {"measurement": "IC50", "setting": "curve of first compound, second compound 0.0949 µM", "value": "< 31.6", "unit": "nM"}, {"measurement": "IC50", "setting": "curve of first compound, second compound 0.3 µM", "value": "< 31.6", "unit": "nM"}, {"measurement": "viability, T/C", "setting": "second compound 0.003 µM, first compound 0.0316 µM", "value": 83.3, "unit": "%"}, {"measurement": "viability, T/C", "setting": "second compound 0.003 µM, first compound 0.1 µM", "value": 78.6, "unit": "%"}, {"measurement": "viability, T/C", "setting": "second compound 0.003 µM, first compound 0.316 µM", "value": 74.2, "unit": "%"}, {"measurement": "viability, T/C", "setting": "second compound 0.003 µM, first compound 1 µM", "value": 58.4, "unit": "%"}, {"measurement": "viability, T/C", "setting": "second compound 0.003 µM, first compound 3.16 µM", "value": 42.8, "unit": "%"}, {"measurement": "viability, T/C", "setting": "second compound 0.003 µM, first compound 10 µM", "value": 24.6, "unit": "%"}, {"measurement": "viability, T/C", "setting": "second compound 0.00949 µM, first compound 0.0316 µM", "value": 10.6, "unit": "%"}, {"measurement": "viability, T/C", "setting": "second compound 0.00949 µM, first compound 0.1 µM", "value": 8.26, "unit": "%"}, {"measurement": "viability, T/C", "setting": "second compound 0.00949 µM, first compound 0.316 µM", "value": 5.43, "unit": "%"}, {"measurement": "viability, T/C", "setting": "second compound 0.00949 µM, first compound 1 µM", "value": 3.96, "unit": "%"}, {"measurement": "viability, T/C", "setting": "second compound 0.00949 µM, first compound 3.16 µM", "value": 2.11, "unit": "%"}, {"measurement": "viability, T/C", "setting": "second compound 0.00949 µM, first compound 10 µM", "value": 1.31, "unit": "%"}, {"measurement": "viability, T/C", "setting": "second compound 0.03 µM, first compound 0.0316 µM", "value": 0.94, "unit": "%"}, {"measurement": "viability, T/C", "setting": "second compound 0.03 µM, first compound 0.1 µM", "value": 1.14, "unit": "%"}, {"measurement": "viability, T/C", "setting": "second compound 0.03 µM, first compound 0.316 µM", "value": 1.13, "unit": "%"}, {"measurement": "viability, T/C", "setting": "second compound 0.03 µM, first compound 1 µM", "value": 0.98, "unit": "%"}, {"measurement": "viability, T/C", "setting": "second compound 0.03 µM, first compound 3.16 µM", "value": 1.02, "unit": "%"}, {"measurement": "viability, T/C", "setting": "second compound 0.03 µM, first compound 10 µM", "value": 0.92, "unit": "%"}, {"measurement": "viability, T/C", "setting": "second compound 0.0949 µM, first compound 0.0316 µM", "value": 1.01, "unit": "%"}, {"measurement": "viability, T/C", "setting": "second compound 0.0949 µM, first compound 0.1 µM", "value": 1.06, "unit": "%"}, {"measurement": "viability, T/C", "setting": "second compound 0.0949 µM, first compound 0.316 µM", "value": 0.94, "unit": "%"}, {"measurement": "viability, T/C", "setting": "second compound 0.0949 µM, first compound 1 µM", "value": 1.17, "unit": "%"}, {"measurement": "viability, T/C", "setting": "second compound 0.0949 µM, first compound 3.16 µM", "value": 1.46, "unit": "%"}, {"measurement": "viability, T/C", "setting": "second compound 0.0949 µM, first compound 10 µM", "value": 1.47, "unit": "%"}, {"measurement": "viability, T/C", "setting": "second compound 0.3 µM, first compound 0.0316 µM", "value": 1.21, "unit": "%"}, {"measurement": "viability, T/C", "setting": "second compound 0.3 µM, first compound 0.1 µM", "value": 1.42, "unit": "%"}, {"measurement": "viability, T/C", "setting": "second compound 0.3 µM, first compound 0.316 µM", "value": 1.39, "unit": "%"}, {"measurement": "viability, T/C", "setting": "second compound 0.3 µM, first compound 1 µM", "value": 1.4, "unit": "%"}, {"measurement": "viability, T/C", "setting": "second compound 0.3 µM, first compound 3.16 µM", "value": 1.35, "unit": "%"}, {"measurement": "viability, T/C", "setting": "second compound 0.3 µM, first compound 10 µM", "value": 1.52, "unit": "%"}]}
{"smiles": "[2H]c1nc(C)nc([2H])c1-c1cc(NC[C@@H](C)c2cccc3c(C(=O)NC)ccnc23)ncn1", "values": [{"measurement": "viability, T/C", "setting": "compound 0.0316 µM", "value": "105% and 102% and 99.5%"}, {"measurement": "viability, T/C", "setting": "compound 0.1 µM", "value": "103% and 92.2% and 90.7%"}, {"measurement": "viability, T/C", "setting": "compound 0.316 µM", "value": "111% and 103% and 77.5%"}, {"measurement": "viability, T/C", "setting": "compound 1 µM", "value": "102% and 99.2% and 90%"}, {"measurement": "viability, T/C", "setting": "compound 3.16 µM", "value": "105% and 107% and 89.8%"}, {"measurement": "viability, T/C", "setting": "compound 10 µM", "value": "103% (2×) and 97.1%"}, {"measurement": "IC50", "setting": "curve of compound", "value": "> 10000", "unit": "nM"}]}
{"smiles": "COc1cc(C)[nH]c(=O)c1CN1CCc2c(Cl)cc(C(OC)C3COC3)c(Cl)c2C1=O", "note": "(configuration not stated) + Cn1nnc2c(C(N)=O)ncn2c1=O", "values": [{"measurement": "IC50", "setting": "curve of first compound, second compound 1 µM", "value": "> 10000", "unit": "nM"}, {"measurement": "IC50", "setting": "curve of first compound, second compound 3.16 µM", "value": "> 10000", "unit": "nM"}, {"measurement": "IC50", "setting": "curve of first compound, second compound 10 µM", "value": "> 10000", "unit": "nM"}, {"measurement": "IC50", "setting": "curve of first compound, second compound 31.6 µM", "value": 1330, "unit": "nM"}, {"measurement": "IC50", "setting": "curve of first compound, second compound 100 µM", "value": "< 31.6", "unit": "nM"}, {"measurement": "viability, T/C", "setting": "second compound 1 µM, first compound 0.0316 µM", "value": 92.7, "unit": "%"}, {"measurement": "viability, T/C", "setting": "second compound 1 µM, first compound 0.1 µM", "value": 90.4, "unit": "%"}, {"measurement": "viability, T/C", "setting": "second compound 1 µM, first compound 0.316 µM", "value": 90.6, "unit": "%"}, {"measurement": "viability, T/C", "setting": "second compound 1 µM, first compound 1 µM", "value": 82.7, "unit": "%"}, {"measurement": "viability, T/C", "setting": "second compound 1 µM, first compound 3.16 µM", "value": 81.3, "unit": "%"}, {"measurement": "viability, T/C", "setting": "second compound 1 µM, first compound 10 µM", "value": 72.8, "unit": "%"}, {"measurement": "viability, T/C", "setting": "second compound 3.16 µM, first compound 0.0316 µM", "value": 92.6, "unit": "%"}, {"measurement": "viability, T/C", "setting": "second compound 3.16 µM, first compound 0.1 µM", "value": 99.3, "unit": "%"}, {"measurement": "viability, T/C", "setting": "second compound 3.16 µM, first compound 0.316 µM", "value": 90, "unit": "%"}, {"measurement": "viability, T/C", "setting": "second compound 3.16 µM, first compound 1 µM", "value": 82.3, "unit": "%"}, {"measurement": "viability, T/C", "setting": "second compound 3.16 µM, first compound 3.16 µM", "value": 70.2, "unit": "%"}, {"measurement": "viability, T/C", "setting": "second compound 3.16 µM, first compound 10 µM", "value": 81.5, "unit": "%"}, {"measurement": "viability, T/C", "setting": "second compound 10 µM, first compound 0.0316 µM", "value": 99.8, "unit": "%"}, {"measurement": "viability, T/C", "setting": "second compound 10 µM, first compound 0.1 µM", "value": 98.7, "unit": "%"}, {"measurement": "viability, T/C", "setting": "second compound 10 µM, first compound 0.316 µM", "value": 86.6, "unit": "%"}, {"measurement": "viability, T/C", "setting": "second compound 10 µM, first compound 1 µM", "value": 86.5, "unit": "%"}, {"measurement": "viability, T/C", "setting": "second compound 10 µM, first compound 3.16 µM", "value": 70.2, "unit": "%"}, {"measurement": "viability, T/C", "setting": "second compound 10 µM, first compound 10 µM", "value": 56.1, "unit": "%"}, {"measurement": "viability, T/C", "setting": "second compound 31.6 µM, first compound 0.0316 µM", "value": 56.4, "unit": "%"}, {"measurement": "viability, T/C", "setting": "second compound 31.6 µM, first compound 0.1 µM", "value": 54.6, "unit": "%"}, {"measurement": "viability, T/C", "setting": "second compound 31.6 µM, first compound 0.316 µM", "value": 59.6, "unit": "%"}, {"measurement": "viability, T/C", "setting": "second compound 31.6 µM, first compound 1 µM", "value": 56.3, "unit": "%"}, {"measurement": "viability, T/C", "setting": "second compound 31.6 µM, first compound 3.16 µM", "value": 30.8, "unit": "%"}, {"measurement": "viability, T/C", "setting": "second compound 31.6 µM, first compound 10 µM", "value": 30.8, "unit": "%"}, {"measurement": "viability, T/C", "setting": "second compound 100 µM, first compound 0.0316 µM", "value": 31.5, "unit": "%"}, {"measurement": "viability, T/C", "setting": "second compound 100 µM, first compound 0.1 µM", "value": 33.4, "unit": "%"}, {"measurement": "viability, T/C", "setting": "second compound 100 µM, first compound 0.316 µM", "value": 19.6, "unit": "%"}, {"measurement": "viability, T/C", "setting": "second compound 100 µM, first compound 1 µM", "value": 13.8, "unit": "%"}, {"measurement": "viability, T/C", "setting": "second compound 100 µM, first compound 3.16 µM", "value": 12.6, "unit": "%"}, {"measurement": "viability, T/C", "setting": "second compound 100 µM, first compound 10 µM", "value": 12, "unit": "%"}]}
